Data from PubChem BioAssay AID1919004 (Molecular Pharmacology Branch, DTP, NCI, 2023).

System: 883617-216-R-J1-PDC complex spheroids, growth, % test/control
Experiment: Anticancer human tumor 883617-216-R-J1-PDC patient-derived bladder carcinoma cell line growth inhibition [AhR]
Conditions: for IC50: curve of first compound; for viability, T/C: stronger effect = lower value
Method in brief: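 Agents were dosed in half-log steps down from roughly clinical Cmax, or from 10 microM where Cmax was unknown, alone and with AhR antagonists. Read-out: percent test/control growth of tumor spheroids containing HUVEC and MSC stromal cells.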

[1] = second compound 0.1 µM, first compound 0.0316 µM
[2] = second compound 0.1 µM, first compound 0.1 µM
[3] = second compound 0.1 µM, first compound 0.316 µM
[4] = second compound 0.1 µM, first compound 1 µM
[5] = second compound 0.1 µM, first compound 3.16 µM
[6] = second compound 0.1 µM, first compound 10 µM
[7] = second compound 0.316 µM, first compound 0.0316 µM
[8] = second compound 0.316 µM, first compound 0.1 µM
[9] = second compound 0.316 µM, first compound 0.316 µM
[10] = second compound 0.316 µM, first compound 1 µM
[11] = second compound 0.316 µM, first compound 3.16 µM
[12] = second compound 0.316 µM, first compound 10 µM
[13] = second compound 1 µM, first compound 0.0316 µM
[14] = second compound 1 µM, first compound 0.1 µM
[15] = second compound 1 µM, first compound 0.316 µM
[16] = second compound 1 µM, first compound 1 µM
[17] = second compound 1 µM, first compound 3.16 µM
[18] = second compound 1 µM, first compound 10 µM
[19] = second compound 3.16 µM, first compound 0.0316 µM
[20] = second compound 3.16 µM, first compound 0.1 µM
[21] = second compound 3.16 µM, first compound 0.316 µM
[22] = second compound 3.16 µM, first compound 1 µM
[23] = second compound 3.16 µM, first compound 3.16 µM
[24] = second compound 3.16 µM, first compound 10 µM
[25] = second compound 10 µM, first compound 0.0316 µM
[26] = second compound 10 µM, first compound 0.1 µM
[27] = second compound 10 µM, first compound 0.316 µM
[28] = second compound 10 µM, first compound 1 µM
[29] = second compound 10 µM, first compound 3.16 µM
[30] = second compound 10 µM, first compound 10 µM
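Also: exposure lasted 7 days after dosing on day 3 of spheroid growth.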

SMILES | IC50 (second compound 0.1 µM) | IC50 (second compound 0.316 µM) | IC50 (second compound 1 µM) | IC50 (second compound 3.16 µM) | IC50 (second compound 10 µM) | viability, T/C [1] | viability, T/C [2] | viability, T/C [3] | viability, T/C [4] | viability, T/C [5] | viability, T/C [6] | viability, T/C [7] | viability, T/C [8] | viability, T/C [9] | viability, T/C [10] | viability, T/C [11] | viability, T/C [12] | viability, T/C [13] | viability, T/C [14] | viability, T/C [15] | other results
Nc1ccccc1NC(=O)c1ccc(CNC(=O)OCc2cccnc2)cc1 + Cc1cncc(-c2nc(NCCc3c[nH]c4ccccc34)c3ncn(C(C)C)c3n2)c1 | 607 nM | 664 nM | 834 nM | 1040 nM | < 31.6 nM | 81.2% | 78.8% | 66.7% | 37% | 11.3% | 1.5% | 88.1% | 79.7% | 68.5% | 40.1% | 14.4% | 0.94% | 96.6% | 93.7% | 77.8% | viability, T/C [16]: 44.6%; viability, T/C [17]: 14.1%; viability, T/C [18]: 0.83%; viability, T/C [19]: 109%; viability, T/C [20]: 105%; viability, T/C [21]: 83.2%; viability, T/C [22]: 51.1%; viability, T/C [23]: 18.9%; viability, T/C [24]: 0.37%; viability, T/C [25]: 41.6%; viability, T/C [26]: 42.5%; viability, T/C [27]: 35.8%; viability, T/C [28]: 21.3%; viability, T/C [29]: 11.1%; viability, T/C [30]: 0.35%
O=C(C=Cc1cccc(S(=O)(=O)Nc2ccccc2)c1)NO + Cc1cncc(-c2nc(NCCc3c[nH]c4ccccc34)c3ncn(C(C)C)c3n2)c1 | 1740 nM | 1660 nM | 1960 nM | 1900 nM | < 31.6 nM | 92.5% | 93.9% | 83% | 60.6% | 37% | 3.56% | 88.5% | 86.4% | 84.4% | 60.3% | 34.5% | 4.17% | 97.1% | 101% | 96.4% | viability, T/C [16]: 63.5%; viability, T/C [17]: 39.1%; viability, T/C [18]: 2.44%; viability, T/C [19]: 123%; viability, T/C [20]: 114%; viability, T/C [21]: 94.8%; viability, T/C [22]: 69.8%; viability, T/C [23]: 34.6%; viability, T/C [24]: 2.66%; viability, T/C [25]: 52.4%; viability, T/C [26]: 43.2%; viability, T/C [27]: 34.7%; viability, T/C [28]: 42.7%; viability, T/C [29]: 22%; viability, T/C [30]: 1.42%
O=C(c1cc(Cc2n[nH]c(=O)c3ccccc23)ccc1F)N1CCN(C(=O)C2CC2)CC1 + Cc1cncc(-c2nc(NCCc3c[nH]c4ccccc34)c3ncn(C(C)C)c3n2)c1 | > 10000 nM | > 10000 nM | > 10000 nM | > 10000 nM | > 10000 nM | 81.1% | 89.9% | 76.4% | 79.5% | 70.8% | 83.7% | 93.5% | 86.9% | 79.1% | 78.9% | 77.9% | 71.7% | 90% | 90.9% | 91% | viability, T/C [16]: 78.9%; viability, T/C [17]: 87%; viability, T/C [18]: 80%; viability, T/C [19]: 99.9%; viability, T/C [20]: 94.8%; viability, T/C [21]: 98.4%; viability, T/C [22]: 89.6%; viability, T/C [23]: 101%; viability, T/C [24]: 71.9%; viability, T/C [25]: 53.8%; viability, T/C [26]: 54.9%; viability, T/C [27]: 50.4%; viability, T/C [28]: 49.6%; viability, T/C [29]: 49.3%; viability, T/C [30]: 54.4%
